Laboratory results taken from ChEMBL document CHEMBL1201862, “PubChem BioAssay data set” (2004).
Active and inactive are the calls of the source.

Key:
[1] = mouse fibroblast viability loss – cell-based, cherry-pick samples, set 2, cytotoxicity control for T. cruzi growth inhibitor project, dose response (AID 651817); format: functional; conditions: NIH3T3
[2] = target: Botulinum neurotoxin type F (Clostridium botulinum, UniProt P30996); assay: High-throughput multiplex microsphere dose response for inhibitors of toxin protease, specifically Botulinum neurotoxin light chain F protease, compounds from Cherry Pick 02.; format: functional; conditions: read-out: EC50_MICROM
[3] = target: T1, Small ubiquitin-related modifier 1 (Homo sapiens, UniProt P63165); assay: SUMO1 protein interaction blockers, potency – biochemical, fluorescence polarization, uHTS hits, dose response (AID 624382); format: functional; conditions: read-out: IC50_Mean
Large T antigen = Large T antigen (Simian virus 40, UniProt P03070); format: functional, Betapolyomavirus macacae;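 also: Confirmatory-stage PubChem screen for compounds that inhibit SV40 T antigen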
[4] = target: Heat shock cognate 71 kDa protein (Homo sapiens, UniProt P11142); assay: In Vitro Hsc70 Dose Response Fluorescence Polarization Assay. [Related pubchem assays: 1072 ]
[5] = target: T2, Tyrosine-protein phosphatase non-receptor type 7 (Homo sapiens, UniProt P35236); format: functional
T2 sequence (P35236 whole entry): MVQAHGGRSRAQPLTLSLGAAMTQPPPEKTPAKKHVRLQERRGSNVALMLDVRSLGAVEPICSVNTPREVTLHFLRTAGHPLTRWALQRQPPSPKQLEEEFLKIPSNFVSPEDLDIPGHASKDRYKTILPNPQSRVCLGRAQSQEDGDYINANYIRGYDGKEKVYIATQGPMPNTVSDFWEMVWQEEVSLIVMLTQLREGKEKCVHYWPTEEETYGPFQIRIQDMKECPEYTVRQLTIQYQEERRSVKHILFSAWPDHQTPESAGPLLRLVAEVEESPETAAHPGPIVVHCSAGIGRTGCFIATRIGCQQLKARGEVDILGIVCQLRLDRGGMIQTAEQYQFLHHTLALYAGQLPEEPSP

[6] = target: T1, Small ubiquitin-related modifier 1; assay: SUMO1 protein-protein binding blockers, potency – biochemical, FRET, dose response (AID 624383); format: functional; conditions: read-out: IC50_Mean
[7] = target: Heat shock 70 kDa protein 1A (Homo sapiens, UniProt P0DMV8); assay: inhibition of Hsp70 binding activity – biochemical, fluorescence polarization, SAR follow-up (AID 1072)
[8] = target: T3, Dual specificity protein phosphatase 6 (Rattus norvegicus, UniProt Q64346)
T3 sequence (Q64346 whole entry): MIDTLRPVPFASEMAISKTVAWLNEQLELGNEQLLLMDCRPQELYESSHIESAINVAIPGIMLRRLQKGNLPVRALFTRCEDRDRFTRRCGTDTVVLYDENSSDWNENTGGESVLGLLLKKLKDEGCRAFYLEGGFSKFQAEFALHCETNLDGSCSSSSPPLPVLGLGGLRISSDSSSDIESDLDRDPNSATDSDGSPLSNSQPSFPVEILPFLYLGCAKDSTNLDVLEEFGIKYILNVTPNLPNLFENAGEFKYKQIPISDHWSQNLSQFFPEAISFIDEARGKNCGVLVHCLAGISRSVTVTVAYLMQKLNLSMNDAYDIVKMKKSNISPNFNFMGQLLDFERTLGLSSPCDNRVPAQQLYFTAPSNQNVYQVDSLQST

[9] = target: T4, Small ubiquitin-related modifier 2 (Homo sapiens, UniProt P61956); assay: disruption of SUMO2 interaction with SIM peptide – biochemical, fluorescence polarization, uHTS hits, selectivity assay for SUMO1 interaction inhibitor project, dose response (AID 624385); format: functional; conditions: read-out: IC50_Mean
HeLa [10] = assay: viability loss in HeLa cells – cell-based, 24 h, cherry-picked samples, cytotoxicity control, dose response (AID 504726); format: functional; conditions: Homo sapiens;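 also: potency for cytotoxicity as loss of luminescence signal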
NS3 = NS3 (Hepatitis C virus, UniProt A3EZJ3); assay: PubChem AID 2173; set-up: species or system Hepacivirus hominis
[11] = target: T4, Small ubiquitin-related modifier 2; assay: SUMO2 binding disruption by SUMO1 hits – biochemical, FRET, human SUMO2, uHTS hits, selectivity assay for SUMO1 interaction inhibitor project, dose response (AID 624384); format: functional; conditions: read-out: IC50_Mean
[12] = target: Glyceraldehyde-3-phosphate dehydrogenase (Homo sapiens, UniProt P04406)
[13] = target: T3, Dual specificity protein phosphatase 6; format: functional
ORF 73 = target: T5, ORF 73 (Human herpesvirus 8, UniProt O40947); assay: KSHV LANA DNA-binding disruption – biochemical, fluorescence polarization, cherry-picked samples, dose response (AID 504725); set-up: species or system Human gammaherpesvirus 8;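 also: fluorescence polarization of a labeled DNA duplex reporting LANA DNA binding; potency is for inhibitors that block LANA binding to the DNA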
T5 sequence (O40947 whole entry): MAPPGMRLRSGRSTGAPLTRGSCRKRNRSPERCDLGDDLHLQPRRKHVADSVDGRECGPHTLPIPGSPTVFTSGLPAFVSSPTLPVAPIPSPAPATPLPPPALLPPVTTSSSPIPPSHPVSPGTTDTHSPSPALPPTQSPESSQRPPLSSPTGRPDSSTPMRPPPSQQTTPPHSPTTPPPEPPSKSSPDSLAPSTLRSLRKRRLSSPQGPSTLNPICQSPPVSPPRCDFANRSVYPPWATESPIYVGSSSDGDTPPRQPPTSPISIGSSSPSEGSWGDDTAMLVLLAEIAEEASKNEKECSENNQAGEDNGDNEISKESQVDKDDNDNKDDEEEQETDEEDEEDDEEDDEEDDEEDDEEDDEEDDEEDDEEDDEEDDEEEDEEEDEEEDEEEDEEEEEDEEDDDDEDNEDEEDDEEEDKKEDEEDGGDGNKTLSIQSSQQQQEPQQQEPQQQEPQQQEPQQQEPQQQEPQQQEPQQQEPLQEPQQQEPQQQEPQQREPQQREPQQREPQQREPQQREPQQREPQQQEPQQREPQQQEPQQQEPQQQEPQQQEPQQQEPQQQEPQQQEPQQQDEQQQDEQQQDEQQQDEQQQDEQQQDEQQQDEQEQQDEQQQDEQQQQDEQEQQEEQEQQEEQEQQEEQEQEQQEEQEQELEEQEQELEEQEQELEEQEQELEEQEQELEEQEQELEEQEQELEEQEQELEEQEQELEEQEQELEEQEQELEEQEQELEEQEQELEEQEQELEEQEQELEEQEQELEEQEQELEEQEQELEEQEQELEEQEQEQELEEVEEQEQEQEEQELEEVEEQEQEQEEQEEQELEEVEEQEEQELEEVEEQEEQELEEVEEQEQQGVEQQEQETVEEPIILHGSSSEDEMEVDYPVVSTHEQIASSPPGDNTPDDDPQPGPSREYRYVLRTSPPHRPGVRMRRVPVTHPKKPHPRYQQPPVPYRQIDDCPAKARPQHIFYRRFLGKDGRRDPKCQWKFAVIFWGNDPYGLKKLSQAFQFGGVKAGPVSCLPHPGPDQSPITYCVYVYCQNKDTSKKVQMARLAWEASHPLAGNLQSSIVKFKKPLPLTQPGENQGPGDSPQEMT

[14] = target: T6, Rac GTPase-activating protein 1 (Homo sapiens, UniProt Q9H0H5); assay: blockers of MgcRacGAP-driven Rac1 GTP hydrolysis – biochemical, ADP Hunter fluorescence, primary and confirmatory, confirmation (AID 624330); format: functional
T6 sequence (Q9H0H5 whole entry): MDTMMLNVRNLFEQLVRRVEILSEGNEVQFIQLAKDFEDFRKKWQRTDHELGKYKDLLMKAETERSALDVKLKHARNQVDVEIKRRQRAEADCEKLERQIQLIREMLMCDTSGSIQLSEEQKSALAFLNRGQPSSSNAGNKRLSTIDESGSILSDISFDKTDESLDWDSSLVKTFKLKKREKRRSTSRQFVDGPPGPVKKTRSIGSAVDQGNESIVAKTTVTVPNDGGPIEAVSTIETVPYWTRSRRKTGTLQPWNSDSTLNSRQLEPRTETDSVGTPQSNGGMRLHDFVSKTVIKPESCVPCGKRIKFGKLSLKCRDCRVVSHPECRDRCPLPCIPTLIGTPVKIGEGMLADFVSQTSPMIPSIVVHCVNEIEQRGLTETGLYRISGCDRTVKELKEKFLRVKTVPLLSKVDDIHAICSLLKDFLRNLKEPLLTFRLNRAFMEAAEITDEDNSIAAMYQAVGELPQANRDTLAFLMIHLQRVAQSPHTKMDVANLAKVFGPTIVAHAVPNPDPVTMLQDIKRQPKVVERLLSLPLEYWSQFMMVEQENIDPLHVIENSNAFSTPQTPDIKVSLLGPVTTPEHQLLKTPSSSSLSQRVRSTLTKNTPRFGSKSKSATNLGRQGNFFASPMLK

Vero = assay: viability loss in Vero cells – cell-based, plate reader, cherry-pick samples, cytotoxicity control, dose response (AID 687020); format: functional; conditions: Chlorocebus sabaeus
HeLa [15] = assay: viability loss in HeLa cells – cell-based, ATP luminescence, cherry-pick samples, cytotoxicity control, dose response (AID 687004); format: functional; conditions: Homo sapiens
[16] = off-target signal loss in HeLa-CEM21 co-culture – HeLa F-luc CTL cells, cherry-picked, counter-screen for HIV-1 Env fusion inhibitor project, dose response (AID 652040); format: functional, cell-based;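 also: potency for signal decrease marking cytotoxic or nonspecific inhibition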
HepG2 = assay: viability loss in HepG2 hepatoma cells – cell-based, cherry-picks, set 2, cytotoxicity control, dose response (AID 687002); format: functional; conditions: Homo sapiens
[17] = viability loss in CEM21 cells – cell-based, CellTiter-Glo luminescence, cherry-picked, cytotoxicity control for viral fusion inhibitor project, dose response (AID 652042); format: functional;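 also: potency for signal decrease meaning cytotoxicity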
[18] = target: T7, Zinc finger protein mex-5 (Caenorhabditis elegans, UniProt Q9XUB2); assay: potency of MEX-5 RNA-binding blockers – biochemical, C. elegans, fluorescence polarization, dose response (AID 1960)
T7 sequence (Q9XUB2 whole entry): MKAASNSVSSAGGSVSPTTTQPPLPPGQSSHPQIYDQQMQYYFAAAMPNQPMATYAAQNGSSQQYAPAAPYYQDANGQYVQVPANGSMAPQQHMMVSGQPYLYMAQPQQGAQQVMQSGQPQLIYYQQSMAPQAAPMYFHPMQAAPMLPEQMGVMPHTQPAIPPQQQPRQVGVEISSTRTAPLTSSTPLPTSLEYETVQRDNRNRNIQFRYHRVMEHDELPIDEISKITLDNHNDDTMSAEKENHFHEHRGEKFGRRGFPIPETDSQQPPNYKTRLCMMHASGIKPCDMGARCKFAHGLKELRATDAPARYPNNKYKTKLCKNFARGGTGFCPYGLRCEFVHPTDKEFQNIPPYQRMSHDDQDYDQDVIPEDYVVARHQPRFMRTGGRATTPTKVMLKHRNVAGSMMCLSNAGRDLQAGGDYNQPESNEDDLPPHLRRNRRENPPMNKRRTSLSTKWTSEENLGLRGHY

Mu-type opioid receptor = Mu-type opioid receptor (Homo sapiens, UniProt P35372); format: functional, cell-based;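 also: U2OS cells with beta-arrestin recruitment to OPRM1 by beta-gal complementation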
[19] = target: T8, RNA-binding protein pos-1 (Caenorhabditis elegans, UniProt G5EF15); assay: disruptors of C. elegans POS-1 RNA interaction – biochemical, fluorescence polarization, dose response (AID 1964);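 also: purified POS-1 fused to maltose binding protein made in E. coli; potency of compounds blocking POS-1 binding to fluorescent RNA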
T8 sequence (G5EF15 whole entry): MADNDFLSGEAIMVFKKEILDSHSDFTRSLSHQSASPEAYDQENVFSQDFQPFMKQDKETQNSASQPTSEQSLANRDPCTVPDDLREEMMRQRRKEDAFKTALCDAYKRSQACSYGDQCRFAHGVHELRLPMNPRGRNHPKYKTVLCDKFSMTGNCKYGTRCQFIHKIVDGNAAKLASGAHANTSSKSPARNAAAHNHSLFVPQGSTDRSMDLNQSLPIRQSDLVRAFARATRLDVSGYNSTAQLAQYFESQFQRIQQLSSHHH

[20] = target: 5-hydroxytryptamine receptor 2A (Mus musculus, UniProt P35363); format: functional, cell-based;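 also: CHO-K1 cells with tagged receptor and beta-arrestin; agonist potency measured as compound-induced activation of the receptor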
Bcl-2-like protein 10 = target: T9, Bcl-2-like protein 10 (Homo sapiens, UniProt Q9HD36); assay: Bcl-B/TR3 peptide binding disruption – biochemical, fluorescence polarization, FITC-TR3 peptide, selectivity assay for Bfl-1 inhibitor project, primary screen (AID 748);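 also: fluorescence polarization from a fluorescein-labelled TR3 peptide binding purified Bcl-B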
T9 sequence (Q9HD36 whole entry): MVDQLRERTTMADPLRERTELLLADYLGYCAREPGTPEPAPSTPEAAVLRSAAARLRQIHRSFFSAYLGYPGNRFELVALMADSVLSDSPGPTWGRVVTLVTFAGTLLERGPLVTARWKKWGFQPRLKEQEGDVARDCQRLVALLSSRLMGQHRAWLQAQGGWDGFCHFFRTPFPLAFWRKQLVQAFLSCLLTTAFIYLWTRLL

[21] = target: Matrix metalloproteinase-14 (Homo sapiens, UniProt P50281); assay: Dose Response confirmation of uHTS hits for a small molecule inhibitors of MT1-MMP activation in a fluorescence assay set 1.; format: functional

T4 sequence (P61956 whole entry): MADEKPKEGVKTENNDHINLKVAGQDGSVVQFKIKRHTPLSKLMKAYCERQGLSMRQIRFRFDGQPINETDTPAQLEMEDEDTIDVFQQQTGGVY
T1 sequence (P63165 whole entry): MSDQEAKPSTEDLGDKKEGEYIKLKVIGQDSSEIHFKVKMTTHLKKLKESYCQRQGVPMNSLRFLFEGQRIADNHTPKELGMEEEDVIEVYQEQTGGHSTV
Large T antigen, sequence (P03070 whole entry): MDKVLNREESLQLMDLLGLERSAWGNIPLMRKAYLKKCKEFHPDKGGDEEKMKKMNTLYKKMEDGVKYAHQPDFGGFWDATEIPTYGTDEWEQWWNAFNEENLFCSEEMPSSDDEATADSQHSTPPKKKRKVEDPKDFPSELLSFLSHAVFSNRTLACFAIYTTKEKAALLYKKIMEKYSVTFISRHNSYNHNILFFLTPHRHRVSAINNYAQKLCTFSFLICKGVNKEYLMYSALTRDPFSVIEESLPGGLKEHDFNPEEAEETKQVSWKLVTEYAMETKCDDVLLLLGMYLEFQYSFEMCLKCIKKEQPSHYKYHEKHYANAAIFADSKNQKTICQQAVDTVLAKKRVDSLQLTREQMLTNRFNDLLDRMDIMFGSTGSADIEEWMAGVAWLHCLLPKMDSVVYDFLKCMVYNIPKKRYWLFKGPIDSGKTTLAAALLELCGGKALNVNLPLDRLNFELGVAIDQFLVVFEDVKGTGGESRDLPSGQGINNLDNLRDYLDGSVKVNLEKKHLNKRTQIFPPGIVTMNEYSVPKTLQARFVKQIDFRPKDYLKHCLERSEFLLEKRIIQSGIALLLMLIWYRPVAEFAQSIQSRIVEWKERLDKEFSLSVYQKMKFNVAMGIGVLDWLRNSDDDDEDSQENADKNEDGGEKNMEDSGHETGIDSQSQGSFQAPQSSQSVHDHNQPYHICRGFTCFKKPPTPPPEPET
NS3, sequence (A3EZJ3 whole entry): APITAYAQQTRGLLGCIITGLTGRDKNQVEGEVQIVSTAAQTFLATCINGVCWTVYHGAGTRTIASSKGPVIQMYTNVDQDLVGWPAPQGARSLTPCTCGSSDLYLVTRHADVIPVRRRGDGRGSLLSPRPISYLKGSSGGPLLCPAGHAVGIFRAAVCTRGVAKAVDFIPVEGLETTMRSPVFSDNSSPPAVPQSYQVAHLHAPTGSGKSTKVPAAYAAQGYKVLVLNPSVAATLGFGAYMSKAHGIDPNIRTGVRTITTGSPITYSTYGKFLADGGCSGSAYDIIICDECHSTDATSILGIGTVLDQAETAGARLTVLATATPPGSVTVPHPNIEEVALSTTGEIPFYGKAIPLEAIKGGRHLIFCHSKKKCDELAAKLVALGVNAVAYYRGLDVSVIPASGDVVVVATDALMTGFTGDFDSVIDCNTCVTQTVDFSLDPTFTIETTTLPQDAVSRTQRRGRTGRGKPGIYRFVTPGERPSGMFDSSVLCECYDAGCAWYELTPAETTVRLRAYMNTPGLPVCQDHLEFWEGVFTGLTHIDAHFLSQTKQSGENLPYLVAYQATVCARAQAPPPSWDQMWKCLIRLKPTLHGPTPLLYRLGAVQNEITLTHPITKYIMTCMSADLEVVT
Botulinum neurotoxin type F, sequence (P30996 1-436 limits assumed): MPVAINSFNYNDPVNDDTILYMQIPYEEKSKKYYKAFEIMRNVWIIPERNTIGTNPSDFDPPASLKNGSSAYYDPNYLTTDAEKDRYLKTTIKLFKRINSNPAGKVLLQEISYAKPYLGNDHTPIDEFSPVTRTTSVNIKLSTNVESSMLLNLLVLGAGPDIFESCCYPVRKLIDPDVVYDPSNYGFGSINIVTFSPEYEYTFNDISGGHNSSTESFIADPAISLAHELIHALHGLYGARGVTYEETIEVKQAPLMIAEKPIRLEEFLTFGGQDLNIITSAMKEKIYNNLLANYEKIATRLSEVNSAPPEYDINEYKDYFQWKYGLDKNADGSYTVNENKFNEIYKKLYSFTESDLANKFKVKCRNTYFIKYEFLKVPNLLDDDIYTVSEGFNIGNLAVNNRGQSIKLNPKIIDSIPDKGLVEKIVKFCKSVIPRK
Heat shock cognate 71 kDa protein, sequence (P11142 whole entry): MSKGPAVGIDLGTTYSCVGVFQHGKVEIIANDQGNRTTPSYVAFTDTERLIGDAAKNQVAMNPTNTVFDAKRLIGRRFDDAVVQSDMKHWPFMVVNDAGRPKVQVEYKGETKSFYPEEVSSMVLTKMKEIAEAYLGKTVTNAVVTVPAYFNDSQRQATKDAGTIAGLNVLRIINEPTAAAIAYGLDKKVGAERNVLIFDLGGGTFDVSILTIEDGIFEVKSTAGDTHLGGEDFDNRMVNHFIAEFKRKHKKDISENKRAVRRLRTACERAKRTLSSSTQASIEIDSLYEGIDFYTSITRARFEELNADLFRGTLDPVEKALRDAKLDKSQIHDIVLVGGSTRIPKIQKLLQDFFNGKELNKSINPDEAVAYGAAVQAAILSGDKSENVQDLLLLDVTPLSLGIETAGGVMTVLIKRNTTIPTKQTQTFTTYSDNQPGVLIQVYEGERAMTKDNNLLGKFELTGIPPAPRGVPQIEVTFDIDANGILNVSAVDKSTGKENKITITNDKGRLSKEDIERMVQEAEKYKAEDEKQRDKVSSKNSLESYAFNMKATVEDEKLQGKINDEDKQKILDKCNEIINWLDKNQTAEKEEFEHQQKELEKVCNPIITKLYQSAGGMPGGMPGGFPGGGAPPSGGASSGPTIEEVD
Mu-type opioid receptor, sequence (P35372 whole entry, the tested form may be a part): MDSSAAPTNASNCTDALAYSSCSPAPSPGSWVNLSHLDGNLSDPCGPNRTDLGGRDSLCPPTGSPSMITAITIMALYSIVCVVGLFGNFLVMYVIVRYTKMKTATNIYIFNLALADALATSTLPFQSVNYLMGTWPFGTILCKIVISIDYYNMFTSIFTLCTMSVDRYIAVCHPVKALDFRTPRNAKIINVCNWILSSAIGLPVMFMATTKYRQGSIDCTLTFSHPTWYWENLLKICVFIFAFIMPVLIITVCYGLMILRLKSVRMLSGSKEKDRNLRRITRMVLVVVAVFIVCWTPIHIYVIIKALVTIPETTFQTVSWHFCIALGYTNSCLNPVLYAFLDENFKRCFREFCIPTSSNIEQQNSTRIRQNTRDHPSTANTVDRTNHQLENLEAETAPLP
5-hydroxytryptamine receptor 2A, sequence (P35363 whole entry): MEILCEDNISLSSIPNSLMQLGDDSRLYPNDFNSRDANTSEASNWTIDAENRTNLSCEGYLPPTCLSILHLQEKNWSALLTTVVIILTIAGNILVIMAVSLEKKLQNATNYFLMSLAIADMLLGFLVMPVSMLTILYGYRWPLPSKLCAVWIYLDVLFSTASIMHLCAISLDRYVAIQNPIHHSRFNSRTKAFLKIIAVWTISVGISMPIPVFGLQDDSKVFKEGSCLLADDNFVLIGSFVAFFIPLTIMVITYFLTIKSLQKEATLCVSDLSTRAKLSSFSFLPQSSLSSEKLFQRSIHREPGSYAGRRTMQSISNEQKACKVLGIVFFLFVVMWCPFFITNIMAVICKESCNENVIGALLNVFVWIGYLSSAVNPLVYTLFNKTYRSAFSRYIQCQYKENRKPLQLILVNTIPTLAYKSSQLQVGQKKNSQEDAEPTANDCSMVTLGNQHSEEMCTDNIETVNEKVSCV
Glyceraldehyde-3-phosphate dehydrogenase, sequence (P04406 whole entry): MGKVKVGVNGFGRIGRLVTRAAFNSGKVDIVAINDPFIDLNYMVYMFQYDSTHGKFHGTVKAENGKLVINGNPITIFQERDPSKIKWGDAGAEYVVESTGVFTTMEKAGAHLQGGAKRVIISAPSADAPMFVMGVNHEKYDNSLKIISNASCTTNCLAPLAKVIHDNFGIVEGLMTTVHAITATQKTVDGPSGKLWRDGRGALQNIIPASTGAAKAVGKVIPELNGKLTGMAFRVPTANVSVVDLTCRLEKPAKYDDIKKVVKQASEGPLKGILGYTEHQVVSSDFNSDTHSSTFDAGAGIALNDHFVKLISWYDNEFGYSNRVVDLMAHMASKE
Heat shock 70 kDa protein 1A, sequence (P0DMV8 whole entry): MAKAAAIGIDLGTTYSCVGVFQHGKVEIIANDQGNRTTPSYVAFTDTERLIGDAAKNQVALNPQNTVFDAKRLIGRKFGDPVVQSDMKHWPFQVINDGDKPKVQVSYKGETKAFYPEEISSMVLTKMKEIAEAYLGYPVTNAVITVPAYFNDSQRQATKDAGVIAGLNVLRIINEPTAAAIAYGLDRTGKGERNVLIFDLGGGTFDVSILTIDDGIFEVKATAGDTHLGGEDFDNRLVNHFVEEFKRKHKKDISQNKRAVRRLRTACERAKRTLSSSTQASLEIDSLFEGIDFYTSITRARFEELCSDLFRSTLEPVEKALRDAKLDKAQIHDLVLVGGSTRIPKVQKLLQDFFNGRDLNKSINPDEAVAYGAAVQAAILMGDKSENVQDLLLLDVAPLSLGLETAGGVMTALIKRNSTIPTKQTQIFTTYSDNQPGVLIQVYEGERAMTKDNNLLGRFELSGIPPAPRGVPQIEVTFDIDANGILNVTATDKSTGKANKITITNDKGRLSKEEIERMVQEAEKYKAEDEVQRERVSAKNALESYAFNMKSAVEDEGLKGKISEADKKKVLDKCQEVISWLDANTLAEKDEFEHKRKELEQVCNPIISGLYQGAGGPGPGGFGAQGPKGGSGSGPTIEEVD

## Cc1ccc(S(=O)(=O)Nc2ccc3c(c2)CC(=O)N([C@@H](C)CO)C[C@@H](C)[C@H](CN(C)S(=O)(=O)c2ccc(Cl)cc2)O3)cc1
[1]
  AC50: 17.8 µM (active)

## Cc1cc2ccccc2n1CCNC(=O)Cc1ccccc1
[2]
  EC50: 2.9 µM (active)

## Cc1cc(C)c2c(c1)NC(C(=O)O)C1CC=CC21 (centres undefined)
[3]
  IC50: 4.97 µM (active)
Large T antigen
  IC50: 26.8 µM (active)
[4]
  IC50: > 100 µM (not active)
[5]
  IC50: > 100 µM (not active)
[6]
  IC50: 22.8 µM (inactive)
[7]
  IC50: > 100 µM (not active)
[8]
  IC50: 41.3 µM (active)
[9]
  IC50: 13.4 µM (active)
HeLa [10]
  AC50: 264 µM (active)
NS3
  IC50: 3.67 µM (active)
[11]
  IC50: 3.69 µM (active)
[12]
  IC50: 91.4 µM (active)
[13]
  IC50: 46.1 µM (active)
ORF 73
  AC50: 61.2 µM (active)
[14]
  IC50: 171 µM (active)

## C=CCOc1ccccc1CN1CCC(Cc2ccccc2)CC1
Vero
  AC50: 35 µM (active)

## CCc1nc(N2CCCCC2C)c2oc3ccccc3c2n1 (centres undefined)
HeLa [15]
  AC50: 11.7 µM (active)
[16]
  AC50: 49.6 µM (active)
HepG2
  AC50: 14.2 µM (active)
[17]
  AC50: 36.2 µM (active)

## Cc1ccccc1-c1ccc(/C=C2/SC(N3CCOCC3)=NC2=O)o1
[18]
  EC50: 69.6 µM (active)
Mu-type opioid receptor
  EC50: 92.5 µM (inactive)
[19]
  EC50: 26.1 µM (inconclusive)
[20]
  EC50: 6.39 µM (active)

## C/C(=C/c1oc2ccc(O)cc2c1[N+](=O)[O-])N(C)C
Large T antigen
  IC50: 9.41 µM (active)
Bcl-2-like protein 10
  IC50: > 100 µM (inactive)
[21]
  IC50: 13.3 µM (active)
